Measured values from US11369666B2, “Treatment of diseases involving mucin” (NewSouth Innovations Pty Limited, priority 2012, dated 2022).
Values joined by “and” are separate entries in the source; they are usually repeats but may differ in a detail not shown here. Equal values may be shown once.

How the values were obtained:
MUC 1 cell lines = assay: Br and NAC with chemotherapy drugs in MUC 1 cell lines (FIG. 11, 12); format: cell-based; conditions: low doses of Cisplatin, FIG. 11 and 12
Source text: The combination of Br and NAC with chemotherapy drugs in MUC 1 cell lines was investigated (see FIGS. 11 and 12).

PMP tumor/mucin = assay: Breakdown of PMP tumor/mucin specimens from 31 patients in the laboratory; format: biochemical, human; conditions: for Residual mucin weight post treatment: 300 μg/ml Br, 5% NAC or both
Method: Specimens of tumor/mucin were taken from the abdomen and then subjected to treatment in the laboratory with 300 μg/ml Br, 5% NAC, or a mixture of both, for 3 hours at 37° C. The weight of mucin tumor was measured before and after treatment.

human PMP mucin = assay: Time course for dissolution of human PMP mucin in the laboratory (FIG. 1); format: biochemical; conditions: FIG. 1, agent alone
[1] = system: MKN 45 human gastric mucin secreting cancer cell line; assay: In vitro growth, SRB assay, 72 hour culture (FIG. 7a); format: cell-based; conditions: MKN 45, SRB assay, agents individually
Method: MKN 45 is a human gastric mucin secreting cancer cell line. The effect of NAC, Br and the combination on in vitro growth (SRB assay, 72 hour culture) was studied.

variant of HT29 (5M21) = assay: Effect of Br and NAC combination on chemotherapy (FIG. 8); format: cell-based
Source text: Chemo resistance of mucin secreting cancers is common. The experiments in FIG. 8 again relate to a variant of HT29 (5M21). A combination of Br and NAC was effective, whereas the individual agents were not effective.

[2] = system: mesothelioma cell lines PET and YOU (MUC1); assay: Growth inhibition of MUC1 mesothelioma cell lines (FIG. 9, 10); format: cell-based
Source text: The two mesothelioma cell lines PET and YOU (both of which have MUC1) were investigated. These cell lines are different from cancer cells which secrete mucin externally or that have mucin internally in the cell (signet cell).

N.N.[Cl][Pt][Cl] [Cisplatin, cisplatin]
efficacy in MUC 1 cell lines (MUC 1 cell lines): ineffective

CC(=O)N[C@@H](CS)C(=O)O [NAC, N-acetyl cysteine]
effect of treatment on PMP tumor (Table 1) (PMP tumor/mucin; agent alone, 31 patients): ineffective | reduction of weight of mucin tumor (PMP tumor/mucin; in every case, agent on its own, 300 μg/ml Br or 5% NAC, 3 hours at 37° C.): no (or a very modest) reduction of weight | Residual mucin weight post treatment (PMP tumor/mucin; patient P1, mucin type soft, 3 hours at 37° C.): 1.90 g and 1.67 g | Residual mucin weight post treatment (PMP tumor/mucin; patient P2, mucin type soft, 3 hours at 37° C.): 1.39 g and 1.53 g | Residual mucin weight post treatment (PMP tumor/mucin; patient P3, mucin type soft, 3 hours at 37° C.): 1.80 g and 1.83 g | Residual mucin weight post treatment (PMP tumor/mucin; patient P4, mucin type Semi solid, 3 hours at 37° C.): 1.28 g and 1.53 g | Residual mucin weight post treatment (PMP tumor/mucin; patient P5, mucin type Hard, 3 hours at 37° C.): 1.69 g and 1.79 g | Residual mucin weight post treatment (PMP tumor/mucin; patient P6, mucin type soft, 3 hours at 37° C.): 2.13 g and 2.08 g | Residual mucin weight post treatment (PMP tumor/mucin; patient P7, mucin type soft, 3 hours at 37° C.): 2.13 g and 2.08 g | Residual mucin weight post treatment (PMP tumor/mucin; patient P8, mucin type soft, 3 hours at 37° C.): 0.95 g and 1.61 g | Residual mucin weight post treatment (PMP tumor/mucin; patient P9, mucin type Signet ring carcinoma, 3 hours at 37° C.): 1.42 g and 1.56 g | Residual mucin weight post treatment (PMP tumor/mucin; patient P10, mucin type Hard, 3 hours at 37° C.): 1.82 g and 1.73 g | Residual mucin weight post treatment (PMP tumor/mucin; patient P12, mucin type Semi Hard, 3 hours at 37° C.): 1.81 g and 1.94 g | Residual mucin weight post treatment (PMP tumor/mucin; patient P13, mucin type Hard, 3 hours at 37° C.): 1.73 g and 1.43 g | Residual mucin weight post treatment (PMP tumor/mucin; patient P14, mucin type soft, 3 hours at 37° C.): 1.60 g and 1.57 g | Residual mucin weight post treatment (PMP tumor/mucin; patient P15, mucin type soft, 3 hours at 37° C.): 1.36 g and 1.37 g | Residual mucin weight post treatment (PMP tumor/mucin; patient P16, mucin type soft, 3 hours at 37° C.): 1.69 g and 1.62 g | Residual mucin weight post treatment (PMP tumor/mucin; patient P17, Scraped mucin from mucoid tissues, 3 hours at 37° C.): 2.64 g | Residual mucin weight post treatment (PMP tumor/mucin; patient P18, mucin type soft, 3 hours at 37° C.): 2.31 g and 2.24 g | Residual mucin weight post treatment (PMP tumor/mucin; patient P19, Semi soft Mucin deposits on tissue, 3 hours at 37° C.): 1.79 g and 1.89 g | Residual mucin weight post treatment (PMP tumor/mucin; patient P20, mucin type soft, 3 hours at 37° C.): 2.34 g and 2.36 g | Residual mucin weight post treatment (PMP tumor/mucin; patient P21, mucin type soft, 3 hours at 37° C.): 2.38 g and 1.74 g | Residual mucin weight post treatment (PMP tumor/mucin; patient P22, Adeno-carcinoma, 3 hours at 37° C.): 1.74 g and 1.64 g | Residual mucin weight post treatment (PMP tumor/mucin; patient P23, mucin type Semi solid, 3 hours at 37° C.): 1.76 g | Residual mucin weight post treatment (PMP tumor/mucin; patient P24, Mucin deposits on tissue, 3 hours at 37° C.): 1.64 g and 1.46 g | Residual mucin weight post treatment (PMP tumor/mucin; patient P25, mucin type Hard, 3 hours at 37° C.): 1.49 g and 1.37 g | Residual mucin weight post treatment (PMP tumor/mucin; patient P26, mucin type Hard, 3 hours at 37° C.): 1.23 g and 1.26 g | Residual mucin weight post treatment (PMP tumor/mucin; patient P27, mucin type soft, 3 hours at 37° C.): 1.92 g and 2.03 g | Residual mucin weight post treatment (PMP tumor/mucin; patient P28, mucin type soft, 3 hours at 37° C.): 1.48 g | Residual mucin weight post treatment (PMP tumor/mucin; patient P29, mucin type soft, 3 hours at 37° C.): 1.21 g | Residual mucin weight post treatment (PMP tumor/mucin; patient P30, mucin type soft, 3 hours at 37° C.): 1.26 g and 1.16 g | Residual mucin weight post treatment (PMP tumor/mucin; patient P31, mucin type Hard, 3 hours at 37° C.): 1.56 g and 1.84 g | effect on dissolution of human PMP mucin (human PMP mucin): no effect | effect on in vitro growth [1]: no or little effect | efficacy against 5M21 (variant of HT29 (5M21)): not effective | growth inhibition of PET and YOU ([2]; 50 mM NAC alone): ineffective | growth inhibition of PET and YOU ([2]; FIG. 9 and 10): no action
